Entries after “also recorded” stand apart in the source; their conditions may differ.
Key:
[1] = test system: presynaptic terminals of cultured hippocampal neurons; assay: TBS-induced presynaptic plasticity measured by FM 1-43 dye uptake in hippocampal cultures; format: cell-based, rat
[2] = target: NMDA receptors (NR2B-containing) (Rattus norvegicus, UniProt P35439+Q00960); assay: evoked NMDA currents ([…]), double-perforated patch; format: cell-based
Method: Electrophysiology. Dual whole cell perforated patch clamp recordings were made on two interconnected cultured hippocampal pyramidal neurons. Perforated patch pipettes were front-filled with a solution containing (in mM): CsOH, 127; D-gluconic acid, 127; CsCl, 4; HEPES, 10; NaCl, 8; EGTA, 0.4; pH was adjusted to 7.25 with CsOH, and then back-filled with the same solution containing […] amphotericin B (Sigma, St. Louis, Mo.). Extracellular solution contained (in mM): NaCl, 145; KCl, 3; glucose, 15; HEPES, 10; MgCl2, 0.8-1.2; CaCl2, 1.2; 0.005 glycine (Sigma), 0.05 picrotoxin (Sigma); pH adjusted to 7.4 with NaOH. MgCl2 concentration was matched to its concentration in culture medium. In experiments where effects of drugs on neuronal activity were quantified (FIG. 4D), recordings were done in culture medium (with HEPES replacing bicarbonate/CO2 to maintain pH). All experiments were performed at room temperature. For assaying synaptic connectivity, each neuron was stimulated by 1 ms step depolarization from −70 to +30 mV in voltage-clamp mode. Only neurons with monosynaptic connections were used. […] Recordings with access resistance>20 MΩ or that varied substantially were rejected from analysis.
We hypothesized that one target may be the number and properties of NMDA receptors at individual synapses.

GluR1 = assay: quantitative Western blotting of hippocampal homogenate; format: in vivo, rat; settings: baclofen 0.07 mg/kg/day in drinking water, 4 months; rats' hippocampus
Method: (§1) Quantitative Western blotting. Samples of hippocampal homogenate (10 ug/sample) were resolved on polyacrylamide gels, transferred to PVDF, and probed with anti-NR1 (Chemicon), NR2A (Upstate) or NR2B (Santa Cruz Biotech), GluR1 (Chemicon), Synapsin1 (American Qualex), or PSD-95 (Upstate) antibody followed by the appropriate secondary antibody coupled to horseradish peroxidase (1:10,000, Santa Cruz Biotech) in Tris-buffered saline (pH 7.3) containing 5% dry milk and 0.1% Tween (BioRad). Visualization of immunoreactive bands was achieved by enhanced chemiluminescence (Perkin Elmer Biosciences) and captured on autoradiography film (Kodak Scientific). Standard curves, in which the amount of protein was varied systematically, were constructed to establish that we operated within the linear range of the chemiluminescence detection method. In addition, each immunoblot was exposed to autoradiography film multiple times (average 7; minimum 5) for varying duration to make sure we operated in the linear range of the film for each experiment. Digital images, produced by scanning films on a Epson 3200 Scanner (Epson) with Epson Scan Software (Epson), were quantified using GelPro Analyzer 3.1 software. The integrated optical density (IOD) of each immunoreactive band from hippocampal samples relative to baseline measured immediately above and below the band in the same lane, and normalized by the actin or neurofilament band also in the same lane. Group data (eight animals per group) are represented as the mean+/−SEM of the IOD of samples.

NR2B = assay: as above; format: in vivo, rat
Method: as §1

[3] = test system: excitatory and inhibitory terminals; settings: short treatment (2-24 hr)
[4] = general status of treated rats; settings: chronic treatment in drinking water, 4 months

Sequence of NMDA receptors (NR2B-containing) (Q00960 27-1482, other chains not shown): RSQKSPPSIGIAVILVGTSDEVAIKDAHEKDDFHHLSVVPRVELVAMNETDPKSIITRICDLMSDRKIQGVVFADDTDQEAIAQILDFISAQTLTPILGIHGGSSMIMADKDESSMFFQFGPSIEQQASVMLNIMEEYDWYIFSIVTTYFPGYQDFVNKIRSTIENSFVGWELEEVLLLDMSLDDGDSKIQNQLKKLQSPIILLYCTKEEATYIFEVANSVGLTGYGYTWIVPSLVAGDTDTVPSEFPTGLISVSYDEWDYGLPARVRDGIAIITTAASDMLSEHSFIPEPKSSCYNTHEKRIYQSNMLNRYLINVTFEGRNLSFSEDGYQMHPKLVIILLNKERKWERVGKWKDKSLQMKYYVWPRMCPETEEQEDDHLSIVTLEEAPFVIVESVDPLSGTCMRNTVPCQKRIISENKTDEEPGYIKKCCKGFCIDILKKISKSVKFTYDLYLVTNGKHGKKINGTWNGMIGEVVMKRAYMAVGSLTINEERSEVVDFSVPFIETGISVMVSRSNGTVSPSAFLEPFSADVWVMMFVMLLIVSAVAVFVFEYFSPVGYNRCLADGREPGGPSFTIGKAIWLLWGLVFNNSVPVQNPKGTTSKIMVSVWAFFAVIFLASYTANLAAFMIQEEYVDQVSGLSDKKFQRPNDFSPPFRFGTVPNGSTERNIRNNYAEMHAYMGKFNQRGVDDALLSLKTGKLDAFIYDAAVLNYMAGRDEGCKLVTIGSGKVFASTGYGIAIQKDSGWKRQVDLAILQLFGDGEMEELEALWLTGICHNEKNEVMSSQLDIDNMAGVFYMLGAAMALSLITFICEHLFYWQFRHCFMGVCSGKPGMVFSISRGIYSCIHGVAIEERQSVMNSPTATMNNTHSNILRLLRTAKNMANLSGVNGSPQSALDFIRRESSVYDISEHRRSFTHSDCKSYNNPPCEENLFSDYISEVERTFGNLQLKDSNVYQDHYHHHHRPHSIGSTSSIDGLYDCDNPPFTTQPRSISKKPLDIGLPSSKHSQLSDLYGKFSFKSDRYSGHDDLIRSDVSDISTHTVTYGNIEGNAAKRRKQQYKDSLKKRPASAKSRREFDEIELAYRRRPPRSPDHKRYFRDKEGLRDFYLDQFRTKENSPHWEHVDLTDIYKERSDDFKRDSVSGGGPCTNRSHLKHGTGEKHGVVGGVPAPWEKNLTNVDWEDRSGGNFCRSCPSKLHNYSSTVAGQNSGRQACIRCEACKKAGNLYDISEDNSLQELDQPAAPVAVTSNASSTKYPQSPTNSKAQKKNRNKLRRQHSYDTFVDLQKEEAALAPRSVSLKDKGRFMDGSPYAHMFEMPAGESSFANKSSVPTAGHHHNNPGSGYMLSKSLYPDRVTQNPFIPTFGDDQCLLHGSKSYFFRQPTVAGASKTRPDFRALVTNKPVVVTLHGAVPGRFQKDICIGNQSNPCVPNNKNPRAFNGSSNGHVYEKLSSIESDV

Q: For NCC(CC(=O)O)c1ccc(Cl)cc1 (stereo not shown) [baclofen, 4-amino-3-(4-chlorophenyl) butanoic acid], which “effect of theta-burst induction in treated cultures” value ([1]; 4-6 hours treatment, baclofen 20 μm, NBQX 1 μm, flunitrazepam 5 μm) is on record?
A: Both the number of functional synapses and the probability of release increased

Q: And the “plasticity of presynaptic terminals (S2/S1)” value ([1]; baclofen 10 μM, short term (4-6 hours) and long term (48 hours))?
A: induced enhancement of plasticity for both short term (4-6 hours) and long term (48 hours) periods of time; also recorded: enhances plasticity of presynaptic terminals

Q: And the “τdecay of EPSCNMDA, representative trace” value ([2]; baclofen-treated neurons, FIG. 7A)?
A: 200 ms

Q: What about the “τdecay of EPSCNMDA, average” value ([2]; baclofen-treated neurons, N=6) of the same compound?
A: 176 ± 30 ms

Q: And the “ifenprodil-sensitivity of EPSCNMDA in treated versus control cultures” value ([2]; ifenprodil 3 μM, baclofen 10 μM 6 hours or 1.2 mM Mg)?
A: triggered increased sensitivity of the EPSCNMDA to ifenprodil; also recorded: more sensitive to ifenprodil; also recorded: increases the sensitivity of EPSCNMDA to ifenprodil

Q: And the GLUR1 expression level (GluR1)?
A: significant enhancement; also recorded: increases expression level

Q: And the NR2B expression level (NR2B; baclofen 0.07 mg/kg/day in drinking water, 4 months, rats' hippocampus)?
A: significant enhancement; also recorded: increases expression level

Q: What about the “increase in levels of NR2B protein” value (NR2B; baclofen treatment (FIG. 10)) of the same compound?
A: approximately 60%

Q: And the “change of synaptic density” value [3]?
A: No short treatment (2-24 hr, baclofen, nimodepine, NBQX, and TTX) produced a significant change of synaptic density

Q: What about the “general status of the rats (body weight, mobility)” value [4] of the same compound?
A: did not observe any significant change in the general status
